Laboratory results from ChEMBL document CHEMBL4477199, “Design and synthesis of novel bicalutamide and enzalutamide derivatives as antiproliferative agents for the treatment of prostate cancer” (Eur J Med Chem, 2016).

Tests used:
[1] = test system: LNCaP; experiment: Antiproliferative activity against human LNCAP cells after 96 hrs by propidium iodide staining based fluorescence 2D monolayer assay; format: functional, cell-based
[2] = test system: VCaP; experiment: Antiproliferative activity against human VCaP cells after 96 hrs by propidium iodide staining based fluorescence 2D monolayer assay; format: functional, cell-based
[3] = 33000 µM
Description: Solubility in 100% DMSO at 33 mM at -20 degC

[4] = test system: DU-145; experiment: Antiproliferative activity against human DU145 cells after 96 hrs by propidium iodide staining based fluorescence 2D monolayer assay; format: functional, cell-based; details: DU-145, 96 h
[5] = test system: CWR22R; experiment: Antiproliferative activity against human 22Rv1 cells after 96 hrs by propidium iodide staining based fluorescence 2D monolayer assay; format: functional, cell-based; details: 22Rv1, 96 h
[6] = 96 h
Description: Solubility in RPMI1640 culture medium at <30 uM incubated for 4 days by microscopic analysis

Structure (SMILES) | IC50 [1] | IC50 [2] | solubility [3] | IC50 [4] | IC50 [5] | solubility [6]
CC1(C)C(=O)N(c2ccc(C(F)(F)F)cc2)C(=O)N1c1ccc(C#N)c(C(F)(F)F)c1 | 9.37 µM | 30.1 µM | Soluble | 100 µM | 63.6 µM | Soluble
CC(O)(CSc1ccc(F)c(F)c1)C(=O)Nc1ccc([N+](=O)[O-])cc1C(F)(F)F (stereo unspecified) | 83 µM | 100 µM | Soluble | 100 µM | 83.6 µM | Soluble
CC(O)(COc1ccc(C(F)(F)F)cn1)C(=O)Nc1ccc([N+](=O)[O-])c(C(F)(F)F)c1 (stereo unspecified) | 36.5 µM | 100 µM | Soluble | 100 µM | 35.2 µM | Soluble
CC(O)(CSc1cccc(OC(F)(F)F)c1)C(=O)Nc1ccc([N+](=O)[O-])cc1C(F)(F)F (stereo unspecified) | 9.15 µM | 15.9 µM | Soluble | 21.6 µM | 15.8 µM | Soluble
C[C@](O)(CS(=O)(=O)c1cccc(C(F)(F)F)c1)C(=O)Nc1ccc(C#N)c(C(F)(F)F)c1 | 13.2 µM | 39.9 µM | Soluble | 45.2 µM | 25.7 µM | Soluble
CC(O)(CS(=O)(=O)c1ccc(F)c(F)c1)C(=O)Nc1ccc([N+](=O)[O-])cc1C(F)(F)F (stereo unspecified) | 19.5 µM | 37.3 µM | Soluble | 48.1 µM | 33.6 µM | Soluble
CC(O)(CSc1ccc(F)cc1)C(=O)Nc1ccc([N+](=O)[O-])cc1C(F)(F)F (stereo unspecified) | 11.9 µM | 21.1 µM | Soluble | 26.4 µM | 17.6 µM | Soluble
CC(O)(COc1ccc(C#N)cc1)C(=O)Nc1ccc(C#N)cc1C(F)(F)F (stereo unspecified) | 34.7 µM | 61.4 µM | Soluble | 100 µM | 42.9 µM | Soluble
CC(O)(CSc1cccc(C(F)(F)F)c1)C(=O)Nc1ccc(C(F)(F)F)cc1 (stereo unspecified) | 22.6 µM | 19.5 µM | Soluble | 30.7 µM | 18.6 µM | Soluble
CC(O)(COc1cccc(C(F)(F)F)c1)C(=O)Nc1ccc(C#N)c(C(F)(F)F)c1 (stereo unspecified) | 8.31 µM | 9.04 µM | Soluble | 10.8 µM | 5.89 µM | Soluble
CC(O)(COc1ccccc1OC(F)(F)F)C(=O)Nc1ccc(C#N)cc1C(F)(F)F (stereo unspecified) | 33.8 µM | 43.9 µM | Soluble | 27.1 µM | 16.7 µM | Soluble
CC(O)(COc1ccc(F)c(F)c1)C(=O)Nc1ccc(C#N)c(C(F)(F)F)c1 (stereo unspecified) | 19 µM | 25.6 µM | Soluble | 45.2 µM | 35.5 µM | Soluble
CC(O)(COc1ccc(C(F)(F)F)cc1)C(=O)Nc1ccc(C#N)cc1C(F)(F)F (stereo unspecified) | 28.6 µM | 23 µM | Soluble | 32.4 µM | 29.9 µM | Soluble
CC(O)(COc1cccc(C(F)(F)F)c1)C(=O)Nc1ccc([N+](=O)[O-])cc1C(F)(F)F (stereo unspecified) | 12.9 µM | 19.3 µM | Soluble | 18.1 µM | 15.2 µM | Soluble
CC(O)(COc1ccccc1C(F)(F)F)C(=O)Nc1ccc(C#N)c(C(F)(F)F)c1 (stereo unspecified) | 9.68 µM | 16.6 µM | Soluble | 17.3 µM | 11.6 µM | Soluble
CC(O)(COc1ccccc1C(F)(F)F)C(=O)Nc1ccc(C(F)(F)F)cc1 (stereo unspecified) | 6.98 µM | 11.5 µM | Soluble | 26.4 µM | 6.42 µM | Soluble
CC(O)(CS(=O)(=O)c1ccc(C(F)(F)F)cc1)C(=O)Nc1ccc([N+](=O)[O-])cc1C(F)(F)F (stereo unspecified) | 29.3 µM | 46.9 µM | Soluble | 40.9 µM | 25.4 µM | Soluble
CC(O)(COc1cccc(OC(F)(F)F)c1)C(=O)Nc1ccc(C#N)cc1C(F)(F)F (stereo unspecified) | 63.4 µM | 56.3 µM | Soluble | 35.9 µM | 28.7 µM | Soluble

Structure (SMILES) | IC50 [1] | IC50 [2] | solubility [3] | IC50 [4] | IC50 [5] | solubility [6]
CC(O)(CSc1ccc(OC(F)(F)F)cc1)C(=O)Nc1ccc(C#N)c(C(F)(F)F)c1 (stereo unspecified) | 42.8 µM | 40.3 µM | Soluble | 64 µM | 46.6 µM | Soluble
CC(O)(COc1ccc(F)cc1F)C(=O)Nc1ccc(C#N)cc1C(F)(F)F (stereo unspecified) | 30.6 µM | 50.6 µM | Soluble | 99.5 µM | 60.9 µM | Soluble
CC(O)(COc1ccc(F)c(F)c1)C(=O)Nc1ccc([N+](=O)[O-])c(C(F)(F)F)c1 (stereo unspecified) | 14.5 µM | 18.9 µM | Soluble | 21.6 µM | 18.5 µM | Soluble
CC1(C)C(=O)N(c2cccc(C(F)(F)F)c2)C(=O)N1c1ccccc1C(F)(F)F | 28.3 µM | 100 µM | Soluble | 100 µM | 100 µM | Soluble
C[C@](O)(CSc1ccc(F)cc1F)C(=O)Nc1ccc(C#N)c(C(F)(F)F)c1 | 25.2 µM | 18.3 µM | Soluble | 28.5 µM | 17.2 µM | Soluble
CC(O)(CSc1cc(C(F)(F)F)ccn1)C(=O)Nc1ccc([N+](=O)[O-])cc1C(F)(F)F (stereo unspecified) | 5.52 µM | 17.4 µM | Soluble | 14 µM | 11.5 µM | Soluble
CC(O)(CSc1ccc(C(F)(F)F)cn1)C(=O)Nc1ccc(C#N)c(C(F)(F)F)c1 (stereo unspecified) | 80.7 µM | 89.3 µM | Soluble | 84.1 µM | 53.9 µM | Soluble
CC(O)(CS(=O)(=O)c1ccccc1C(F)(F)F)C(=O)Nc1ccc(C#N)cc1C(F)(F)F (stereo unspecified) | 74 µM | 100 µM | Soluble | 100 µM | 98.8 µM | Soluble
CC(O)(COc1cccc(C(F)(F)F)c1)C(=O)Nc1ccc([N+](=O)[O-])c(C(F)(F)F)c1 (stereo unspecified) | 9.91 µM | 10.3 µM | Soluble | 10 µM | 8.58 µM | Soluble
CC(O)(COc1ccc(C(F)(F)F)cn1)C(=O)Nc1ccc(C#N)cc1C(F)(F)F (stereo unspecified) | 100 µM | 100 µM | Soluble | 100 µM | 100 µM | Soluble
CC(O)(COc1ccc(C(F)(F)F)cc1)C(=O)Nc1ccc([N+](=O)[O-])c(C(F)(F)F)c1 (stereo unspecified) | 17.2 µM | 10.9 µM | Soluble | 25.9 µM | 16.2 µM | Soluble
CC(O)(CS(=O)(=O)c1ccc(OC(F)(F)F)cc1)C(=O)Nc1ccc(C#N)c(C(F)(F)F)c1 (stereo unspecified) | 31.6 µM | 32.8 µM | Soluble | 27.3 µM | 17 µM | Soluble
CC(O)(COc1ccc(OC(F)(F)F)cc1)C(=O)Nc1ccc(C#N)cc1C(F)(F)F (stereo unspecified) | 27.7 µM | 22.4 µM | Soluble | 34.6 µM | 28 µM | Soluble
CC(O)(CS(=O)(=O)c1ccc(F)cc1F)C(=O)Nc1ccc([N+](=O)[O-])cc1C(F)(F)F (stereo unspecified) | 17.9 µM | 58 µM | Soluble | 46.6 µM | 30.2 µM | Soluble
CC(O)(COc1ccccc1C(F)(F)F)C(=O)Nc1ccc(C#N)cc1C(F)(F)F (stereo unspecified) | 14 µM | 21.9 µM | Soluble | 33.2 µM | 19.6 µM | Soluble
CC(O)(CSc1ccc(F)cc1)C(=O)Nc1ccc(C#N)cc1C(F)(F)F (stereo unspecified) | 26.4 µM | 45.5 µM | Soluble | 43.3 µM | 30.1 µM | Soluble
CC(O)(COc1ccc(C#N)cc1)C(=O)Nc1ccc([N+](=O)[O-])c(C(F)(F)F)c1 (stereo unspecified) | 18.7 µM | 26.9 µM | Soluble | 32.7 µM | 30.9 µM | Soluble
CC1(C)C(=O)N(c2ccc(C(F)(F)F)cc2)C(=O)N1c1cccc(C(F)(F)F)c1 | 5.95 µM | 72.4 µM | Soluble | 100 µM | 100 µM | Soluble
